Measured values from patent US20260083851A1 (AVILAR THERAPEUTICS, INC., priority 2022, published 2026).

Biological target: T1, ASGP receptor (biotinylated ASGPR) (Homo sapiens, UniProt P07306)
T1 construct: biotin (biotinylated)
T1 sequence (P07306 1-291): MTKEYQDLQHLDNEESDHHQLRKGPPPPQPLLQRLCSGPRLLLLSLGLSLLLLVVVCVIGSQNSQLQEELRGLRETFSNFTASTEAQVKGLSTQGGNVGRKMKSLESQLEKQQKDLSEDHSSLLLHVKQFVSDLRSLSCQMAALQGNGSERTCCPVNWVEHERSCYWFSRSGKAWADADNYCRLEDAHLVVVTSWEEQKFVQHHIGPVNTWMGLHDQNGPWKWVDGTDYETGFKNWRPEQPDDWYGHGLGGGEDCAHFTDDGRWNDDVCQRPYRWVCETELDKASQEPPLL
Assay type: binding
Details: SPR, Biacore 8K, 25° C.; Table 1A; read-out: ASGPR KD

Kd [µM] | SMILES
< 10 | O=C(NC[C@H]1OC[C@H](Nc2cncc(C(F)(F)F)n2)[C@@H](O)[C@H]1O)c1cnc2[nH]cnc2c1 [A79, N-(((2R,3R,4R,5S)-3,4-dihydroxy-5-((6-(trifluoromethyl)pyrazin-2-yl)amino)tetrahydro-2H-pyran-2-yl)methyl)-3H-imidazo[4,5-b]pyridine-6-carboxamide]
< 10 | O=C(NC[C@H]1OC[C@H](Nc2cncc(C(F)(F)F)n2)[C@@H](O)[C@H]1O)c1ccc2c(n1)CCCN2 [A88, N-(((2R,3R,4R,5S)-3,4-dihydroxy-5-((6-(trifluoromethyl)pyrazin-2-yl)amino)tetrahydro-2H-pyran-2-yl)methyl)-5,6,7,8-tetrahydro-1,5-naphthyridine-2-carboxamide]
< 10 | O=C(O)c1ccc(N2CCC(CN3CCN(C[C@H]4OC[C@H](Nc5cncc(C(F)(F)F)n5)[C@@H](O)[C@H]4O)CC3)CC2)nn1 [A16, 6-(4-((4-(((2R,3R,4R,5S)-3,4-dihydroxy-5-((6-(trifluoromethyl)pyrazin-2-yl)amino)tetrahydro-2H-pyran-2-yl)methyl)piperazin-1-yl)methyl)piperidin-1-yl)pyridazine-3-carboxylic acid]

Same assay, conditions: SPR, Biacore 8K, 25° C.; Table 1B; read-out: ASGPR Kd

Kd [µM] | SMILES
< 10 | OC[C@H]1OC[C@H](Oc2cccc(C(F)(F)F)n2)[C@@H](O)[C@H]1O [A142, (2R,3R,4S,5S)-2-(hydroxymethyl)-5-((6-(trifluoromethyl)pyridin-2-yl)oxy)tetrahydro-2H-pyran-3,4-diol]

Same assay, conditions: SPR, Biacore 8K, 25° C.; Table 1C; read-out: ASGPR KD

Kd [µM] | SMILES
< 10 | O[C@@H]1[C@@H](Nc2cccc(C(F)(F)F)n2)[C@H]2OC[C@](COc3cccnn3)(O2)[C@@H]1O [A295]
< 10 | O[C@@H]1[C@H](O)[C@@H](Nc2cncc(C(F)(F)F)n2)CO[C@@H]1C(F)F [A179, (2S,3R,4R,5S)-2-(difluoromethyl)-5-((6-(trifluoromethyl)pyrazin-2-yl)amino)tetrahydro-2H-pyran-3,4-diol]
< 10 | C[C@H]1O[C@@H](c2ccc3ccccc3n2)[C@H](Oc2cccc(C(F)(F)F)n2)[C@@H](O)[C@H]1O [A344]
< 10 | O=C(O)c1ccc(N2CCN(C[C@H]3OC[C@H](Nc4cncc(C(F)(F)F)n4)[C@@H](O)[C@H]3O)CC2)cc1 [A223, 4-(4-(((2R,3R,4R,5S)-3,4-dihydroxy-5-((6-(trifluoromethyl)pyrazin-2-yl)amino)tetrahydro-2H-pyran-2-yl)methyl)piperazin-1-yl) benzoic acid]
< 10 | C[C@H]1O[C@H](C#Cc2ccc(C(=O)O)nn2)[C@H](Oc2cccc(C(F)(F)F)n2)[C@@H](O)[C@H]1O [A331]
< 10 | C[C@H]1O[C@H](c2ccccc2)[C@H](Oc2cccc(C(F)(F)F)n2)[C@@H](O)[C@H]1O [A252]
< 10 | O[C@@H]1[C@H](O)[C@@H](Oc2cccc(C(F)(F)F)n2)CO[C@@H]1CN1CCN(c2ccccn2)CC1 [A259]
< 10 | O[C@@H]1[C@H](O)[C@@H](Nc2cncc(C(F)(F)F)n2)CO[C@@H]1COc1cccnn1 [A212, (2R,3R,4R,5S)-2-((pyridazin-3-yloxy)methyl)-5-((6-(trifluoromethyl)pyrazin-2-yl)amino)tetrahydro-2H-pyran-3,4-diol]

Same assay, conditions: SPR, Biacore 8K, 25° C.; Table 1D, numeric bound; read-out: ASGPR KD

Kd [µM] | SMILES
> 30 | O=C(OCc1ccccc1)N1C[C@H](O)[C@H](O)[C@@H](S(=O)(=O)c2cccc(C(F)(F)F)n2)C1 [A356]

Same assay, conditions: SPR, Biacore 8K, 25° C.; Table 1D; read-out: ASGPR KD

Kd [µM] | SMILES
< 10 | COC(=O)c1ccc(-c2ccc(C(=O)N3C[C@H](Nc4cncc(C(F)(F)F)n4)[C@@H](O)[C@@H](O)C3)cc2)cc1 [A391]
< 10 | CN1C[C@H](Nc2nccc(C(F)(F)F)n2)[C@@H](O)[C@@H](O)C1 [A372]
< 10 | O=C(c1ccccc1)N1C[C@H](Nc2cncc(C(F)(F)F)n2)[C@@H](O)[C@@H](O)C1 [A422]

Same assay, conditions: SPR, Biacore 8K, 25° C.; Table 1E; read-out: ASGPR KD

Kd [µM] | SMILES
< 10 | C[C@H]1O[C@H](COc2ncccn2)[C@H](Oc2cccc(C(F)(F)F)n2)[C@@H](O)[C@H]1O [A447]
< 10 | C[C@H]1O[C@H](COc2ccc(C(=O)O)nn2)[C@H](Oc2cccc(C(F)(F)F)n2)[C@@H](O)[C@H]1O [A444]
< 10 | C[C@H]1O[C@H](C2=CC3C4CCC(C4)C3C2=O)[C@H](Oc2cccc(C(F)(F)F)n2)[C@@H](O)[C@H]1O (stereo partly shown) [A435]
